One compound from US3937830A, “5-Pivaloyloxy-5-(1-phenylethyl) barbituric acid, analgetic composition and method based thereon” (The Kendall Company, priority 1974, dated 1976) can be followed below.

Data set [1] in a line: Acute oral toxicity in mice. More on the design: species or system adult albino male mice (Charles River strain). Particulars: mouse, in vivo, 95% limits in parentheses. On the procedure:
(§1) All tests were conducted on adult albino male mice (Charles River strain); the dosage consisted of the active agent suspended in 10% aqueous acacia and was administered orally and/or subcutaneously as indicated.
(§2) Acute oral toxicity was determined in the conventional manner. The results were expressed as LD50, the dose required to produce death in 50% of the animals treated, determined graphically, with the 95% limits shown in parentheses.

Data set [2] can be described thus: Phenyl-p-quinone writhing (Siegmund). In kind it is in vivo, adult albino male mice (Charles River strain). Particulars: oral, mice, not dose-related. The method, then:
as §1
In the second procedure, the method of Siegmund, E., et al. reported in Proc. Soc. Exptl. Biol. and Med. 95, 729, (1957) was generally followed. The method is based on the antagonism by both non-narcotic and narcotic analgetics of a syndrome induced in mice following intraperitoneal injection of phenyl-p-quinone. The syndrome is characterized by intermittent contractions of the abdomen, twisting and turning of the trunk, and extension of the hind legs, beginning 3 to 10 minutes after the injection and persisting for more than one hour. The test drug is administered orally at four to five dosage levels. At the time of peak activity, 0.25 ml. of a 0.02 per cent solution of phenyl-p-quinone in 5 per cent (aqueous) ethyl alcohol is injected intraperitoneally. Inhibition of the syndrome is considered an analgetic response.

Data set [3] can be described thus: Hot-plate analgetic activity (Eddy and Leimbach, modified). The data set is classed as in vivo, adult albino male mice (Charles River strain). Particulars: for ED50: Mus musculus, mice. The method, then:
as §1
Two established procedures were employed to determine analgetic activity. The method described by Eddy, N. B., and Leimbach, D., J. Pharmacol. Exptl. Therap. 107, 385 (1953) was followed, with the following modifications, in the first procedure. Mice are pretested by placing them individually on the cleaned surface of a copper water bath, the temperature of which is maintained at 54°-55°C. The reaction time of this noxious thermal stimulus is the time in seconds required for either licking of the paws or jumping, such that all four paws leave the surface of the plate. The drug is then administered orally or subcutaneously, generally at five dosage levels, (10 mice per dosage level) and the reaction times are redetermined at intervals of 1/2 hour, 1 hour, and 2 hours; the time of peak activity is the time at which the greatest number of animals is protected. From the pretreatment reaction times the mean and standard deviations are computed. The cut-off time is taken to be the mean reaction time plus 2 standard deviation units. Reaction times equal to or exceeding this cut-off time are considered to represent analgetic responses. The dosage required to produce an analgetic response in 50% of the animals (ED50 and 95% limits) is computed graphically.

Data set [4] can be described thus: Therapeutic index (LD50 divided by ED50). Details: species or system adult albino male mice (Charles River strain). Particulars: mouse, in vivo; oral LD50 / oral hot-plate ED50, mice. On the procedure: By therapeutic index is meant the LD50 of a compound divided by its ED50, or the dose required to kill one-half of the test animals divided by the dose required to produce the desired therapeutic effect in one-half of the test animals. It will be apparent that the larger the therapeutic index, the greater the margin of safety and the more desirable the drug.
as §1, §2
Two established procedures were employed to determine analgetic activity. The method described by Eddy, N. B., and Leimbach, D., J. Pharmacol. Exptl. Therap. 107, 385 (1953) was followed, with the following modifications, in the first procedure. Mice are pretested by placing them individually on the cleaned surface of a copper water bath, the temperature of which is maintained at 54°-55°C. The reaction time of this noxious thermal stimulus is the time in seconds required for either licking of the paws or jumping, such that all four paws leave the surface of the plate. […]

Each structure is given as a SMILES string. Like-named read-outs stand apart in the source and are kept apart here.

On to `CC(c1ccccc1)C1(OC(=O)C(C)(C)C)C(=O)NC(=O)NC1=O` (centres unmarked) [5-pivaloyloxy-5-(1-phenylethyl) barbituric acid], for which, in data set [1], the LD50 was 690 mg/kg. For the same compound, the “Phenyl-p-quinone Writhing, % active” value in data set [2] (100 mg/kg) turned out to be 26%; in data set [2] (200 mg/kg) it was 30%; in data set [2] (400 mg/kg) it was 10%. In addition, the ED50 was 40 to 80 mg/kg in data set [3] (sc, subcutaneous, not dose-related, read-out: Hot-Plate ED50 (subcutaneous)) and < 3.1 mg/kg in data set [3] (oral, read-out: Hot-Plate ED50 (oral)). In addition, the “Time of Peak Activity” value in data set [3] (time at which the greatest number of animals is protected) was 1/2. For the same compound, the selectivity ratio in data set [4] was > 230.
